# Experimental data: PMC8899577, “Targeting the anti-apoptotic Bcl-2 family proteins: machine learning virtual screening and biological evaluation of new small molecules” (Theranostics, 2022)
# Assays:
# [1] = system: U937 cells; experiment: Western blot of LC3B-I/LC3B-II (autophagy), U937; format: cell-based, Human; settings: 20 µM for 24 h
# [2] = molecular target: Bcl-xL (Homo sapiens, UniProt Q07817); experiment: SPR binding to immobilized Bcl-xL; settings: 25 °C, 2-site fit, highest affinity site
# Description: FastStep experiments were performed with a SensiQ Pioneer apparatus. Bcl-2 immobilization on COOH5 sensorchips was carried out essentially as previously reported, [40]. All the experiments were carried out at 25 °C in degassed HEPES 20 mM, pH 7.4, NaCl 150 mM, 0.005% surfactant P20 + 2% DMSO (HBSP2%D). […] Each sensorgram is the average of at least three experiments. The decrease in Response Units (RU) after 165 s indicates analyte dissociation from the immobilized Bcl-2 upon HSBP2%D buffer injection. Control SPR experiments were carried out measuring sensorgrams on Bcl-xL and Mcl-1 (ligands) immobilized on COOH5 sensorchips as previously reported at 25 °C in degassed HBSP2%D buffer. […] Each sensorgram is the average of at least three experiments. The decrease in RU after 180 s indicates analyte dissociation from the immobilized ligands upon HSBP2%D buffer injection. Kinetic evaluation of the sensorgrams was carried out using the Qdat 4.0 program; best fittings were obtained with 2 sites and indicated in red (reported KD values refer to dissociation constants of the highest affinity site).
# Each sensorgram is the average of at least three experiments.
# [3] = system: MDA-MB-231 cells; experiment: Western blot of PARP1 cleavage, MDA-MB-231; format: cell-based, Human; settings: 72 h
# Description: Western blot analyses of total protein extracts were performed as previously described. Immunodetection was performed using antibodies directed to poly (ADP-ribose) polymerase (PARP; BD Biosciences San Diego, CA, USA), LC3B (Cell Signaling Technology, Danvers, MA), HSP72/73 (Calbiochem, EMD Biosciences, La Jolla, CA), Bcl-2 (SC-509, Santa Cruz Biotechnology Inc, Dallas, TX, USA), Bcl-xL (SC-271121, Santa Cruz Biotechnology Inc), Mcl-1 (SC-12756, Santa Cruz Biotechnology Inc) α-tubulin (Santa Cruz Biotechnology Inc) actin (Sigma-Aldrich, St. Louis, Missouri, USA). Anti-rabbit or anti-mouse immunoglobulin G-horseradish peroxidase-conjugated antibodies (Amersham Biosciences, Freiburg, Germany) were used as secondary antibody. Images were acquired by Image Lab Software (Bio-Rad, Hercules, CA, USA), using a ChemiDoc System instrument (Bio-Rad). […]
# Figure 5 Analysis of apoptosis induction by IS20 and IS21 in leukemia, melanoma and NSCLC cells. […] (G) Flow cytometric quantification of cells in the subG1 peak of cell cycle distribution by propidium iodide staining in HL60 cell line treated with IS20 or IS21 (20 μM for 24 h) and in M14, H1299 and MDA-MB-231 cell lines treated with IS20 or IS21 (20 μM for 72 h). Data are reported as mean ± SD of three independent experiments. p-values were calculated between control (Ctrl) and treated cells, * p < 0.05. […]
# Chain of Bcl-xL (Q07817 whole entry): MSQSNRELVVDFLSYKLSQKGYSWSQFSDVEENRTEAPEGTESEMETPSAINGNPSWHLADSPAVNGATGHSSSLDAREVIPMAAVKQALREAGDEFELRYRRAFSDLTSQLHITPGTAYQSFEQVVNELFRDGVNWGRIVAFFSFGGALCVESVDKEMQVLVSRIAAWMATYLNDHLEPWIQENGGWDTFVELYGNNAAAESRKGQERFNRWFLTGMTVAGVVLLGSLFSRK
Compound,"ratio of LC3B-II on LC3B-I, U937 [1]",Kd [2],"PARP1 cleavage, MDA-MB-231 [3]"
CCCCOc1ccc(C2/C(=C(\O)c3ccc4c(c3)CC(C)O4)C(=O)C(=O)N2c2nnc(SCc3ccc(Cl)cc3)s2)cc1OCC (stereo not drawn) [IS20],Increased ratio,420 ± 90 nM,not evident
CCCCCOc1ccc(C2/C(=C(\O)c3ccc4c(c3)CC(C)O4)C(=O)C(=O)N2c2nnc(SCc3ccc(Cl)cc3)s2)cc1OCC (stereo not drawn) [IS21],Increased ratio,510 ± 170 nM,not evident
